Test [1] addresses T1, recombinant human Meningioma Expressed Antigen 5 (MGEA5), also referred to as O-GlcNAcase (OGA) (Homo sapiens, UniProt O60502).
T1 construct: Full length OGA enzyme was purchased at OriGene (cat # TP322411); purchased OriGene TP322411
T1 sequence (O60502 1-916): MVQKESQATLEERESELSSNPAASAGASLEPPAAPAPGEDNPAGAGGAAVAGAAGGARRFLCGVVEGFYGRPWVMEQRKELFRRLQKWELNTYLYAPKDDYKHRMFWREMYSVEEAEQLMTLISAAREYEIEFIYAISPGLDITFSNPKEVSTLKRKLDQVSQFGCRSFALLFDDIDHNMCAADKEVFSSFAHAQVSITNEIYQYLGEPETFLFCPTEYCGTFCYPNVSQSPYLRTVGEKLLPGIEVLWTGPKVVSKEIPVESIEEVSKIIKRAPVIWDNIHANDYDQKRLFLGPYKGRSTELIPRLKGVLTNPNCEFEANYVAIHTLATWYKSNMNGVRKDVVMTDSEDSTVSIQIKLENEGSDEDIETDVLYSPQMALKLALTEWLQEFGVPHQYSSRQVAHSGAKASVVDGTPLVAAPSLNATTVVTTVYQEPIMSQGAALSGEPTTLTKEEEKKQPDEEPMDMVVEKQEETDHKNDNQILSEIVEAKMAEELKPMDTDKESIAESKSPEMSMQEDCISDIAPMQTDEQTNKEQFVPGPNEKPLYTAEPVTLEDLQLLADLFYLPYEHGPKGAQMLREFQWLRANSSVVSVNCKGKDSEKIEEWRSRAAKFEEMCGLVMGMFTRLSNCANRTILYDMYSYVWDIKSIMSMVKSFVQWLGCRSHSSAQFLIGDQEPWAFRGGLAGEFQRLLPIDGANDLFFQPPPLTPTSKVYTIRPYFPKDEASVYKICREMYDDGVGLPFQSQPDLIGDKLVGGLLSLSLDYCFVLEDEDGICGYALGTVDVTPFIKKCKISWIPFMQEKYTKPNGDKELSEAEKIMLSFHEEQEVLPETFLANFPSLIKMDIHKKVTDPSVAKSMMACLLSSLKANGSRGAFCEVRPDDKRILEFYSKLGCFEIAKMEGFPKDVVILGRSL
Nature of the test: OGA biochemical assay: inhibition of FM-GlcNAc hydrolysis, fluorescence; protocol A (10 nM OGA, 1 h) or protocol B (2 nM OGA, 6 h). The settings on record: Enzymatic protocol B (2 nM OGA, 6 h); for IC50: read-out: Enzymatic hOGA, pIC50 (converted). The gist of the method: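 Full-length human OGA in 200 mM citrate/phosphate pH 7.2 with 0.005% Tween-20, compound pre-incubated 60 min at RT, then 100 uM FM-GlcNAc (final); 10 nM enzyme for 1 h or 2 nM for 6 h at RT. Stopped with pH 11.0 carbonate; fluorescein read at ex 485/em 538 nm. IC50 and Hill coefficient from curve fit.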

The subject of test [2] is OGA in HEK293 cells inducible for P301L mutant human Tau (isoform 2N4R). In words: OGA cellular assay: immunocytochemical detection of O-GlcNAcylated proteins (CTD110.6 antibody) after 6 h incubation. In kind it is cell-based. The settings on record: for Emax / EC50: Homo sapiens, HEK293, 6 h; for Emax / Cellular Emax (%): maximum = Thiamet G 200 uM; for EC50: read-out: Cellular hOGA, pEC50 (converted). A digest of the protocol: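 Low-glucose medium, 6 h compound exposure at 0.2% DMSO; cells PFA-fixed and O-GlcNAc ICC signal imaged at 488 nm (9 fields/well), Hoechst nuclei counted for toxicity. Thiamet G 200 uM on each plate as maximum; IC50 from non-linear regression.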

Experimental findings from US20200079766A1, “MONOCYCLIC OGA INHIBITOR COMPOUNDS” (Janssen Pharmaceutica NV, priority 2016, published 2020) are described below.

Each structure is given as a SMILES string.

The Emax is the size of the effect at its maximum, as opposed to the concentration needed. As to `CC(=O)Nc1ncc(CN2CC[C@H](Cc3ccnc(F)c3)C2)s1` [compound 56], in test [1], the maximal effect (Emax) is 101% and the IC50 is 22.9 nM. Moreover, in test [2], the Emax came out at 90.3% and the EC50 was 64.6 nM.
Regarding `CC(=O)Nc1ncc(CN2CC[C@H](Cc3ncc(C)nc3C)C2)s1` [compound 58], in test [1], the maximal effect (Emax) came out at 101% and the IC50 was 3.16 nM. In addition, in test [2], the maximum response (Emax) turned out to be 90.6% and the EC50 was 40.7 nM.
Consider `CC(=O)Nc1ncc(CN2CC[C@H](Cc3cc(C)cnn3)C2)s1` [compound 59], for which, in test [1], the maximum response (Emax) came out at 101% and the IC50 is 25.7 nM. Also, in test [2], the Emax came to 80.3% and the EC50 was 145 nM.
For the molecule `CC(=O)Nc1ncc(CN2CCC(Cc3cc(C(F)(F)F)cc(C)n3)C2)s1` (stereo not drawn) [compound 60], in test [1], the “Enzymatic Emax (%)” value is on record as 101.3% and the “Enzymatic hOGA; pIC50” value was 7.30. For the same molecule, in test [2], the “Cellular hOGA; pEC50” value was found to be 7.03 and the “Cellular Emax (%)” value is 87.4%.
In the same order, the values of `CC(=O)Nc1ncc(CN2CC[C@H](Cc3ccc(C)nc3)C2)s1` [compound 61] are 101.2%, 7.71, 7.22 and 96.3%.
As for `CC(=O)Nc1ncc(CN2CC[C@H](Cc3cnc(C)nc3)C2)s1` [compound 62], in test [1], the “Enzymatic Emax (%)” value stood at 102.4% and the “Enzymatic hOGA; pIC50” value is 7.93. In addition, in test [2], the “Cellular hOGA; pEC50” value is 7.20 and the “Cellular Emax (%)” value was 81.8%.
The matching figures for `CC(=O)Nc1ncc(CN2CC[C@H](Cc3ccnc(C)c3)C2)s1` [compound 63]: 101.9%, 7.90, 7.46 and 90.1%.
`CC(=O)Nc1ncc(CN2CCC(Cc3cnc(C(F)(F)F)cn3)C2)s1` (stereo not drawn) [compound 64]: in test [1], the “Enzymatic Emax (%)” value was 102.9% and the “Enzymatic hOGA; pIC50” value was 7.34. Besides, in test [2], the “Cellular hOGA; pEC50” value amounted to 7.04 and the “Cellular Emax (%)” value came out at 89.3%.
With `COc1cncc(CC2CCN(Cc3cnc(NC(C)=O)s3)C2)n1` (stereo not drawn) [compound 66], in test [1], the “Enzymatic Emax (%)” value came out at 101% and the “Enzymatic hOGA; pIC50” value was determined as 8.53. In test [2], the “Cellular hOGA; pEC50” value was 7.43 and the “Cellular Emax (%)” value came to 100.6%.
Take `COc1nccnc1CC1CCN(Cc2cnc(NC(C)=O)s2)C1` (stereo not drawn) [compound 67]: in test [1], the “Enzymatic Emax (%)” value was 100.9% and the “Enzymatic hOGA; pIC50” value came to 7.70. For the same molecule, in test [2], the “Cellular hOGA; pEC50” value stood at 6.92 and the “Cellular Emax (%)” value was found to be 84.5%.
On to `CC(=O)Nc1ncc(CN2CC[C@H](Cc3cc(C)c(C)cn3)C2)s1` [compound 69], for which, in test [1], the Emax was 103% and the IC50 is 6.17 nM. In test [2], the maximum response (Emax) came out at 101% and the EC50 is 74.1 nM.
`CC(=O)Nc1ncc(CN2CC[C@H](Cc3nccc(C)c3C)C2)s1` [compound 70]: in test [1], the Emax stood at 102% and the IC50 is 66.1 nM. In test [2], the Emax came out at 97.7% and the EC50 is 129 nM.
`CC(=O)Nc1ncc(CN2CC[C@H](Cc3ccc(C)nc3C)C2)s1` [compound 71]: in test [1], the maximal response (Emax) came out at 99.6% and the IC50 is 12 nM. For the same molecule, in test [2], the Emax was found to be 94.8% and the EC50 was 36.3 nM.
On to `CC(=O)Nc1ncc(CN2CC[C@H](Cc3ccnc(C)c3C)C2)s1` [compound 72], for which, in test [1], the maximal effect (Emax) came to 102% and the IC50 is 7.94 nM. In test [2], the Emax was 109% and the EC50 was 32.4 nM.
In the case of `CC(=O)Nc1ncc(CN2CC[C@H](Cc3cc(C)ncc3C(F)(F)F)C2)s1` [compound 73], in test [1], the “Enzymatic Emax (%)” value is on record as 101.4% and the “Enzymatic hOGA; pIC50” value came to 7.81. Moreover, in test [2], the “Cellular hOGA; pEC50” value turned out to be 6.95 and the “Cellular Emax (%)” value was determined as 94%.
In the case of `CC(=O)Nc1ncc(CN2CC[C@H](Cc3ccncc3C)C2)s1` [compound 74], in test [1], the “Enzymatic Emax (%)” value was found to be 101% and the “Enzymatic hOGA; pIC50” value came out at 8.01. In addition, in test [2], the “Cellular hOGA; pEC50” value is given as 7.34 and the “Cellular Emax (%)” value amounted to 115.8%.
On to `CC(=O)Nc1ncc(CN2CCC(Cc3ncc(F)cc3F)C2)s1` (stereo not drawn) [compound 75], for which, in test [1], the “Enzymatic Emax (%)” value stood at 99.3% and the “Enzymatic hOGA; pIC50” value stood at 7.63. Further, in test [2], the “Cellular hOGA; pEC50” value was found to be 7.11 and the “Cellular Emax (%)” value stood at 104.1%.
The matching figures for `CC(=O)Nc1ncc(CN2CC[C@H](Cc3cc(C)nc(C(F)(F)F)c3)C2)s1` [compound 76]: 102.4%, 7.59, 7.56 and 92.3%.
With `CC(=O)Nc1ncc(CN2CCC(Cc3cc(C)nc(C)n3)C2)s1` (stereo not drawn) [compound 77], in test [1], the “Enzymatic Emax (%)” value was found to be 101.8% and the “Enzymatic hOGA; pIC50” value was 7.91. Moreover, in test [2], the “Cellular hOGA; pEC50” value was determined as 7.27 and the “Cellular Emax (%)” value is 91.1%.
The matching figures for `CCc1cc(C[C@H]2CCN(Cc3cnc(NC(C)=O)s3)C2)cc(C)n1.Cl` [compound 80]: 101.5%, 8.24, 7.94 and 90%.
On to `CC(=O)Nc1ncc(CN2CCC(OCc3cc(C)nc(C)c3)C2)s1` (stereo not drawn) [compound 81], for which, in test [1], the Emax amounted to 102% and the IC50 is 72.4 nM. Also, in test [2], the maximal response (Emax) turned out to be 51.7% and the EC50 was 501 nM.
Regarding `CC(=O)Nc1ncc(CN2CC[C@H](Cc3ccc(C)nc3C#N)C2)s1` [compound 84], in test [1], the “Enzymatic Emax (%)” value was determined as 102.6% and the “Enzymatic hOGA; pIC50” value amounted to 8.30. In test [2], the “Cellular hOGA; pEC50” value is reported as 7.43 and the “Cellular Emax (%)” value was 81.9%.
On to `CC(=O)Nc1ncc(CN2CC[C@H](Cc3cc(C)cc(C)n3)C2)s1` [compound 85], for which, in test [1], the maximal effect (Emax) came to 101% and the IC50 is 8.71 nM. Moreover, in test [2], the Emax was 86.9% and the EC50 is 46.8 nM.
As to `CC(=O)Nc1ncc(CN2CCC(Cc3cnc(C)c(C)n3)C2)s1` (stereo not drawn) [compound 86], in test [1], the “Enzymatic Emax (%)” value amounted to 101.3% and the “Enzymatic hOGA; pIC50” value is reported as 8.49. In test [2], the “Cellular hOGA; pEC50” value is listed as 7.4 and the “Cellular Emax (%)” value was 83.5%.
For `CC(=O)Nc1ncc(CN2CCC(COc3cc(C)nc(C)c3)C2)s1` (stereo not drawn) [compound 89], in test [1], the maximal response (Emax) was found to be 100% and the IC50 was 26.3 nM. Further, in test [2], the Emax was 72.4% and the EC50 was 81.3 nM.
For the molecule `CC(=O)Nc1ncc(CN2CCC(Cc3ccc(C)nn3)C2)s1` (stereo not drawn) [compound 90], in test [1], the “Enzymatic Emax (%)” value turned out to be 100% and the “Enzymatic hOGA; pIC50” value is on record as 7.77. In test [2], the “Cellular hOGA; pEC50” value was found to be 6.83 and the “Cellular Emax (%)” value is on record as 73.7%.
For `CC(=O)Nc1ncc(CN2CCC(Cc3cnc(C#N)cn3)C2)s1` (stereo not drawn) [compound 91], in test [1], the “Enzymatic Emax (%)” value was determined as 102% and the “Enzymatic hOGA; pIC50” value was 8.21. In test [2], the “Cellular hOGA; pEC50” value was found to be 7.28 and the “Cellular Emax (%)” value came out at 102.1%.
As to `CC(=O)Nc1ncc(CN2CC[C@H](Cc3cnc(C(=O)NC(C)(C)C)cn3)C2)s1` [compound 92], in test [1], the Emax amounted to 99.7% and the IC50 is 22.4 nM. In test [2], the Emax stood at 92.6% and the EC50 was 81.3 nM.
As for `CC(=O)Nc1ncc(CN2CCC(Cc3cncnc3C)C2)s1` (stereo not drawn) [compound 103], in test [1], the Emax was determined as 103% and the IC50 was 46.8 nM. In addition, in test [2], the maximal effect (Emax) is 86.9% and the EC50 is 132 nM.
Regarding `CC(=O)Nc1ncc(CN2CCC(Cc3ncc(F)cc3C)C2)s1` (stereo not drawn) [compound 104], in test [1], the maximal effect (Emax) was 102% and the IC50 is 20 nM. For the same molecule, in test [2], the Emax is 89.4% and the EC50 is 58.9 nM.
